Results published in PubChem BioAssay AID463199 (Broad Institute, 2010).
The source made the active and inactive calls.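 The calls were made as follows: active = AC50, the dose giving half-maximal effect, exceeds a fixed cutoff for a compound that rescues yeast growth under heat; inactive = the rest, inconclusive results apart.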

Each molecule was assayed on S. cerevisiae Burl-1 ts mutant growth, BacTiter-Glo, 38.5C 24 h (assay: restored growth of temperature-sensitive Burl-1 yeast – whole organism, S. cerevisiae, Burl-1 ts mutant, luminescence, counter-screen for SUMOylation pathway inhibitor project, dose response (AID 463199)).

| SMILES | AC50 |
| --- | --- |
| CC(C)(C)c1ccc(CN(Cc2ccccc2)C(c2ccccn2)c2nnnn2C(C)(C)C)cc1 (stereo not given) | > 42 µM (inactive) |
| CO/N=C/c1ccc(Oc2ccc(C)cc2)nc1 | > 42 µM (inactive) |
| CCN(CC)C(=O)CSc1nnc(CNc2ccc(F)cc2)n1Cc1ccco1 | > 42 µM (inactive) |
| Cc1ccc(S(=O)(=O)N2[C@@H](c3ccccc3F)C(C(=O)O)=CC[C@H]2c2ccc3c(c2)OCO3)cc1 | > 42 µM (inactive) |
| C/C(=N\NC(=O)Cc1csc(N2CCOCC2)n1)c1ccccc1 | > 42 µM (inactive) |
| CC(C)(C)c1ccc(C(=O)COC(=O)CN2C(=O)NC3(CCCC3)C2=O)cc1 | > 42 µM (inactive) |
| COc1ccccc1-c1nc2ccccc2nc1-c1ccccc1OC | > 42 µM (inactive) |
| O=C(c1ccccc1F)N1CCN=C1SCc1cccnc1 | > 42 µM (inactive) |
| COc1cccc(NC(=O)c2nn(C34CC5CC(CC(C5)C3)C4)cc2[N+](=O)[O-])c1 | > 42 µM (inactive) |
| O=C(NCc1ccco1)c1ccc(Br)c(S(=O)(=O)N2CCCCC2)c1 | > 42 µM (inactive) |
| COc1ccc(C(=O)N/C(=C\c2cc(OC)c(OC)cc2[N+](=O)[O-])C(=O)NCCO)cc1 | > 42 µM (inactive) |
| CC1(OC(=O)CCc2ccccc2)C(=O)C=C2C=C(c3ccc(C#N)cc3)N(CC3CC3)C=C2C1=O (stereo not given) | > 42 µM (inactive) |
| Cc1ccc(NS(=O)(=O)c2ccc(NC(=O)C3CCCO3)cc2)cc1 (stereo not given) | > 42 µM (inactive) |
| O=C(Nc1cccc(Cl)c1)OCc1cncs1 | > 42 µM (inactive) |
| O=c1/c(=C/c2ccco2)sc2nc(-c3ccccc3Br)nn12 | > 42 µM (inactive) |
| CCOC(=O)C1=C(C)NC(C)=C(C(=O)OCC)C1C(=O)OC1CCOC1=O (stereo not given) | > 42 µM (inactive) |
| COc1cc(OC)cc(OC(=O)c2ccc3c(=O)n4c(nc3c2)CCC4)c1 | > 42 µM (inactive) |
| O=C(O)CNS(=O)(=O)Cc1ccccc1 | > 42 µM (inactive) |
| COCc1[nH][nH]c(=O)c1C=Nc1ccc(OC(F)(F)F)cc1 | > 42 µM (inactive) |
| Cc1onc(-c2ccccc2)c1C(=O)N/N=C/C=C/c1ccccc1 | > 42 µM (inactive) |
| COC(=O)c1c(C)cc(O)c(C=O)c1O | > 42 µM (inactive) |
| COc1ccc(NS(=O)(=O)c2cccc(C(=O)NCCCn3ccnc3)c2)cc1 | > 42 µM (inactive) |
| CCN(C(=O)Nc1ccccc1OC)c1c(N)n(Cc2ccccc2)c(=O)[nH]c1=O | > 42 µM (inactive) |
| O=C(CSc1nnc(CNC(=O)c2ccccc2)o1)NCc1ccco1 | > 42 µM (inactive) |

| SMILES | AC50 |
| --- | --- |
| Clc1ccc(CNCc2cccs2)cc1Cl | > 42 µM (inactive) |
| CCOc1ccc(C(C(=O)NC2CCCC2)N(C(=O)c2snc(C(N)=O)c2N)C2CCCC2)cc1 (stereo not given) | > 42 µM (inactive) |
| CCn1c(SCC(=O)Nc2ccc(NC(=O)c3ccco3)cc2)nnc1-c1cccs1 | > 42 µM (inactive) |
| c1ccc2c(c1)OCCOCCOc1ccccc1OCCOCCO2 | > 42 µM (inactive) |
| CCN(CC(=O)NCc1ccc(Cl)cc1)C(=O)/C=C/c1ccc(C#N)cc1 | > 42 µM (inactive) |
| COc1ccccc1NC(=O)CN(c1ccc(C)cc1)S(=O)(=O)c1c(C)n[nH]c1C | > 42 µM (inactive) |
| O=C(COC(=O)c1cc([N+](=O)[O-])ccc1N1CCOCC1)Nc1cccc(F)c1 | > 42 µM (inactive) |
| O=C(CSc1cccc[n+]1[O-])N1CCc2ccccc21 | > 42 µM (inactive) |
| CN1C(=O)C(O)(CC(=O)c2ccccc2O)c2cc(Br)ccc21 (stereo not given) | > 42 µM (inactive) |
| CCOC(=O)c1ccc(CNC(=O)Cn2nnc(-c3ccc(C)cc3)n2)o1 | > 42 µM (inactive) |
| O=C(CS(=O)c1ccc(C(F)(F)F)cc1[N+](=O)[O-])Oc1ccc(Cl)cc1 (stereo not given) | > 42 µM (inactive) |
| Cc1ccc(C(C(=O)NCC2CCCO2)N(Cc2ccccc2F)C(=O)Cn2nnc(-c3cccs3)n2)cc1 (stereo not given) | > 42 µM (inactive) |
| COC/C=C/C1=CC2=CC(=O)C(C)(OC(=O)c3cnc4ccccc4n3)C(=O)C2=CN1CCOC (stereo not given) | > 42 µM (inactive) |
| Cn1c(C(=O)NCCc2ccsc2)cc2c(=O)n(C)c3ccccc3c21 | > 42 µM (inactive) |
| Cn1c(SCC(=O)Nc2ccc(N3CCOCC3)c(Cl)c2)nnc1-c1ccccc1 | > 42 µM (inactive) |
| CCOc1ccc(C(=O)NNC2CC(=O)N(CCc3ccccc3)C2=O)cc1OC (stereo not given) | > 42 µM (inactive) |
| CC(C)C(O)(C(=O)NNc1ccccc1)C(C)C | > 42 µM (inactive) |
| COc1cccc(N=Nc2c(=O)[nH]n3c(=O)cc(C)[nH]c23)c1 | > 42 µM (inactive) |
| COCCN(C(=O)C1CC1)c1nnc(-c2ccc(C)cc2)s1 | > 42 µM (inactive) |
| O=C(c1cccs1)N(C(=O)c1cccs1)c1ccc(Br)cn1 | > 42 µM (inactive) |
| Brc1ccc(-c2cn3cccnc3n2)cc1 | > 42 µM (inactive) |
| Cc1nn(CC(N)=O)c(=O)c2ccccc12 | > 42 µM (inactive) |
| COC(=O)c1cc2occc2n1Cc1nc(-c2ccccc2C)oc1C | > 42 µM (inactive) |
| CCn1c(SCC(=O)OC)nnc1-c1ccncc1 | > 42 µM (inactive) |

| SMILES | AC50 |
| --- | --- |
| N#C/C(=C\c1c(N(Cc2ccccc2)Cc2ccccc2)nc2ccccn2c1=O)C(N)=O | > 42 µM (inactive) |
| CCC(C)(C)NC(=O)C(c1ccc(C)cc1)N(CC1CCCO1)C(=O)CNC(=O)c1cccs1 (stereo not given) | > 42 µM (inactive) |
| Cc1ccc(S(=O)(=O)N2[C@@H](c3ccc(Br)cc3)C(C(=O)O)=C[C@H]2CC2CCCC2)cc1 | > 42 µM (inactive) |
| CCN(CC)C(=O)C1CCCN(c2ccc([N+](=O)[O-])cc2/C=N/NC(=O)c2cccc(Br)c2)C1 (stereo not given) | > 42 µM (inactive) |
| C/C(CC(=O)NC1CCCCC1)=N\NC(=O)Cc1ccc(-c2ccccc2)cc1 | > 42 µM (inactive) |
| COc1cccc(/C=C2\SC(N3CCC(C)CC3)=NC2=O)c1OC | > 42 µM (inactive) |
| COc1ccc(CC(=O)NCCN2CCOCC2)cc1 | > 42 µM (inactive) |
| Cc1cccc(NC(=O)CSCC(=O)N2CCCc3ccccc32)c1 | > 42 µM (inactive) |
| N#Cc1ccc2[nH]c(CO)c(-c3ccccc3)c2c1 | > 42 µM (inactive) |
| O=S(=O)(Nc1ccc(N2CCOCC2)cc1)c1cccs1 | > 42 µM (inactive) |
| Cn1c(Cn2nnc3ccccc32)nnc1SCC(=O)c1ccc(F)cc1 | > 42 µM (inactive) |
| Nc1cc(Cl)ccc1N1CCOCC1 | > 42 µM (inactive) |
| Nc1ccnc(=O)[nH]1 | > 42 µM (inactive) |
| COc1ccc(N2C(=O)CSC23CCCCC3)cc1 | > 42 µM (inactive) |
| O=C1CCc2cc(S(=O)(=O)N3CCC(C(=O)NC4CCCC4)CC3)ccc2N1 | > 42 µM (inactive) |
| COc1cc(C(=O)Nc2sc3c(c2C(=O)O)CCC(C)C3)cc(OC)c1OC (stereo not given) | > 42 µM (inactive) |
| N#CCCN(C(=O)COC(=O)c1ccc(S(=O)(=O)Nc2ccccc2)cc1)c1ccccc1 | > 42 µM (inactive) |
| CC1CN(Cc2ccccc2)c2nc3c(c(=O)[nH]c(=O)n3C)n2C1 (stereo not given) | > 42 µM (inactive) |
| Cc1cc(C(=O)N/N=C/c2ccc3c(c2)OCO3)c2ccccc2n1 | > 42 µM (inactive) |
| CCN(CC)CC(=O)Nc1ccc(Oc2ccc(NC(=O)CN(CC)CC)cc2)cc1 | > 42 µM (inactive) |
| COc1cc(S(=O)(=O)NC2CCCC2)c(OC)cc1C | > 42 µM (inactive) |
| CCNC(=O)C1CC(=O)N(Cc2ccc3c(c2)OCO3)C(=Nc2ccc(F)cc2)S1 (stereo not given) | > 42 µM (inactive) |
